In series [1] the test system is RAW264.7. The series is described as follows: Antiinflammatory activity in mouse RAW264.7 cells assessed as inhibition of LPS-induced NO production at 10 uM relative to control. It counts as functional.
For series [2], the system named is SH-SY5Y. Kind of series: Neuroprotective activity against oxygen glucose-deprivation induced toxicity in human SH-SY5Y cells at 10 uM relative to control. It counts as functional.
Series [3] deals with RAW264.7. Kind of series: Cytotoxicity against mouse RAW264.7 cells assessed as decrease in cell viability by MTT assay. It counts as cell-based. A general note: Formazan colour is commonly taken as a measure of viable cells.
Series [4] deals with SH-SY5Y. The series is described as follows: Neuroprotective activity against oxygen glucose-deprivation induced toxicity in human SH-SY5Y cells at […] relative to control. It counts as functional.

Structures are written as SMILES.

For the compound `C[C@@H]1CC[C@@]2(OC1)O[C@H]1C[C@H]3[C@@H]4CCc5cc(OCc6cn(Cc7ccccc7F)nn6)ccc5[C@H]4CC[C@]3(C)[C@H]1[C@@H]2C`, the inhibition – broadly, the relative decrease from the control value, in per cent – at 10 µM in the series on RAW264.7 [1] was determined as 14.2%. The same compound displayed an Activity with SH-SY5Y [2] of 12.1%.
The like results for `Cc1ccc(Cn2cc(COc3ccc4c(c3)CC[C@@H]3[C@@H]4CC[C@]4(C)[C@@H]5[C@H](C[C@@H]34)O[C@]3(CC[C@@H](C)CO3)[C@H]5C)nn2)cc1` were, in that order, 35.6% and 34.1%.
On to `C[C@@H]1CC[C@@]2(OC1)O[C@H]1C[C@H]3[C@@H]4CCc5cc(OCc6cn(-c7ccccc7C#N)nn6)ccc5[C@H]4CC[C@]3(C)[C@H]1[C@@H]2C`, for which the Activity in the series with SH-SY5Y [2] was 81.2%; with RAW264.7 [3] it was “Toxic”.
In the series with SH-SY5Y [2], `C[C@@H]1CC[C@@]2(OC1)O[C@H]1C[C@H]3[C@@H]4CCc5cc(OCc6cn(-c7cc(F)cc(F)c7)nn6)ccc5[C@H]4CC[C@]3(C)[C@H]1[C@@H]2C` showed an Activity of 71.4%.
Consider `C[C@@H]1CC[C@@]2(OC1)O[C@H]1C[C@H]3[C@@H]4CCc5cc(OCc6cn(Cc7ccc(F)cc7)nn6)ccc5[C@H]4CC[C@]3(C)[C@H]1[C@@H]2C`, for which the inhibition at 10 µM with RAW264.7 [1] was determined as 19.7%. The compound further had an Activity with SH-SY5Y [2] of 50.7%.
The matching figures for `C[C@@H]1CC[C@@]2(OC1)O[C@H]1C[C@H]3[C@@H]4CCc5cc(OCc6cn(Cc7ccccc7)nn6)ccc5[C@H]4CC[C@]3(C)[C@H]1[C@@H]2C`: 23.5% and 35.5%.
In the series on SH-SY5Y [2], `C[C@@H]1CC[C@@]2(OC1)O[C@H]1C[C@H]3[C@@H]4CCc5cc(OCc6cn(-c7ccccc7)nn6)ccc5[C@H]4CC[C@]3(C)[C@H]1[C@@H]2C` registered an Activity of 12.1%.
`COc1ccc(Cn2cc(COc3ccc4c(c3)CC[C@@H]3[C@@H]4CC[C@]4(C)[C@@H]5[C@H](C[C@@H]34)O[C@]3(CC[C@@H](C)CO3)[C@H]5C)nn2)cc1`: in the series with RAW264.7 [1], the inhibition at 10 µM is 40.4%. This compound registered an Activity in the series with SH-SY5Y [2] of 73.9%.
The like results for `COc1ccc(-n2cc(COc3ccc4c(c3)CC[C@@H]3[C@@H]4CC[C@]4(C)[C@@H]5[C@H](C[C@@H]34)O[C@]3(CC[C@@H](C)CO3)[C@H]5C)nn2)cc1` were, in that order, 9.9% and 40.1%.
`CCCn1cc(COc2ccc3c(c2)CC[C@@H]2[C@@H]3CC[C@]3(C)[C@@H]4[C@H](C[C@@H]23)O[C@]2(CC[C@@H](C)CO2)[C@H]4C)nn1` gave an Activity in the series on SH-SY5Y [2] of 73.9%.
Still for that read-out and setting: in the case of `Cc1ccc(-n2cc(COc3ccc4c(c3)CC[C@@H]3[C@@H]4CC[C@]4(C)[C@@H]5[C@H](C[C@@H]34)O[C@]3(CC[C@@H](C)CO3)[C@H]5C)nn2)cc1` it was 3.3%; in that of `C[C@@H]1CC[C@@]2(OC1)O[C@H]1C[C@H]3[C@@H]4CCc5cc(OCc6cn(Cc7cc(F)c(F)cc7F)nn6)ccc5[C@H]4CC[C@]3(C)[C@H]1[C@@H]2C`, 16.5%.
Take `C[C@@H]1CC[C@@]2(OC1)O[C@H]1C[C@H]3[C@@H]4CCc5cc(OCc6cn(Cc7ccc(C#N)cc7)nn6)ccc5[C@H]4CC[C@]3(C)[C@H]1[C@@H]2C`: the inhibition at 10 µM in the series on RAW264.7 [1] amounted to 11.9%. This compound also yielded an Activity in the series with SH-SY5Y [2] of 57.6%.
On to `C[C@@H]1CC[C@@]2(OC1)O[C@H]1C[C@H]3[C@@H]4CCc5cc(OCc6cn(Cc7ccc(C(F)(F)F)cc7)nn6)ccc5[C@H]4CC[C@]3(C)[C@H]1[C@@H]2C`, for which the inhibition at 10 µM in the series with RAW264.7 [1] stood at 9.5%. The compound also displayed an Activity in the series with SH-SY5Y [2] of 66.4%.
The like results for `C[C@@H]1CC[C@@]2(OC1)O[C@H]1C[C@H]3[C@@H]4CCc5cc(OCc6cn(Cc7cccc(F)c7)nn6)ccc5[C@H]4CC[C@]3(C)[C@H]1[C@@H]2C` were, in that order, 30.6% and 51.6%.
`CC(=O)N[C@@H](CS)C(=O)O` [ACETYLCYSTEINE] displayed an Activity in the series with SH-SY5Y [4] of 84.3%.
Consider `C[C@@H]1CC[C@@]2(OC1)O[C@H]1C[C@H]3[C@@H]4CC=C5C[C@@H](O)CC[C@]5(C)[C@H]4CC[C@]3(C)[C@H]1[C@@H]2C` [DISOGENIN], for which the inhibition at 10 µM with RAW264.7 [1] is 5.9%. Moreover, in the series with SH-SY5Y [2], the Activity is listed as 3.5%.
As to `COc1ccc2c(c1)c(CC(=O)O)c(C)n2C(=O)c1ccc(Cl)cc1` [INDOMETHACIN], the inhibition at 10 µM with RAW264.7 [1] was determined as 34.9%.

The values above are taken from ChEMBL document CHEMBL4811264, “Design and synthesis of novel diosgenin-triazole hybrids targeting inflammation as potential neuroprotective agents” (Bioorg Med Chem Lett, 2021).
